Experimental data reported in ChEMBL document CHEMBL1135216, “New 2-(1-adamantylcarbonyl)pyridine and 1-acetyladamantane thiosemicarbazones-thiocarbonohydrazones: cell growth inhibitory, antiviral and antimicrobial activity evaluation” (Bioorg Med Chem Lett, 2002).

Legend:
CCRF-CEM [1] = assay: Tested for the inhibitory concentration against cell growth of human leukemic cell line CCRF-CEM; assay type: functional
CCRF-CEM [2] = assay: Tested for the concentration required to reduce the viability of leukemia cells by 50% against cell growth of T cell leukemia cell line CCRF-CEM using MTT assay; assay type: functional; settings: Homo sapiens, read-out: LC50 (the source's name)
CCRF-CEM [3] = assay: Tested for the inhibitory concentration against cell growth of Tcell leukemic cell line CCRF-CEM using MTT assay; assay type: functional; settings: Homo sapiens
E6SM [4] = assay: Tested for antiviral activity against VSV-virus in human embryonic skin muscle fibroblasts; assay type: functional; settings: Muscle tissue
E6SM [5] = assay: Tested for antiviral activity against herpes simplex virus type 1(KOS) in E6SM cell line(human embryonic skin-muscle fibroblasts); assay type: functional
E6SM [6] = assay: Tested for antiviral activity against vaccinia virus in human embryonic skin muscle fibroblast; assay type: functional; settings: Muscle tissue
HeLa [7] = assay: The compound was tested for antiviral activity against VSV-virus in human epithelial cells; assay type: functional
E6SM [8] = assay: Tested for cytotoxic activity in human embryonic skin muscle fibroblast (E6SM); assay type: functional; settings: Muscle tissue
E6SM [9] = assay: Antiviral activity against thymidine kinase-deficient (TK-HSV-1)virus in E6SM cell line(human embryonic skin-muscle fibroblasts); assay type: functional
E6SM [10] = assay: Antiviral activity against thymidine kinase-deficient (TK-HSV-2G) virus in E6SM cell line(human embryonic skin-muscle fibroblasts); assay type: functional
Escherichia coli = assay: Tested for the antimicrobial activity against Escherichia coli ATCC 25922; assay type: functional
HEL [11] = assay: Tested for cytotoxic activity in human embryonic lung fibroblast (HEL); assay type: functional
HEL [12] = assay: Tested for antiviral activity against human cytomegalovirus (AD-169) in human embryonic lung fibroblasts; assay type: functional
HEL [13] = assay: Tested for antiviral activity against thymidine kinase deficient Varicella zoster virus in human embryonic lung fibroblasts; assay type: functional
HEL [14] = assay: Tested for antiviral activity against thymidine kinase wild type Varicella zoster virus in human embryonic lung fibroblast; assay type: functional
HeLa [15] = assay: Tested for antiviral activity against coxsackie-B4 virus in human epithelial cell line; assay type: functional
HL-60 [16] = assay: Tested for the inhibitory concentration against cell growth of human leukemic cell line HL60; assay type: functional
HL-60 [17] = assay: Tested for the concentration required to reduce the viability of leukemia cells by 50% against cell growth of HL60 acute myeloid leukemia using MTT assay; assay type: functional; settings: Homo sapiens, read-out: LC50 (the source's name)
HL-60 [18] = assay: Tested for the inhibitory concentration against cell growth of HL60 acute myeloid leukemia using MTT assay; assay type: functional; settings: Homo sapiens
HeLa [19] = assay: Tested for cytotoxic activity in human epithelial cell line (HeLa); assay type: functional
HuT78 [20] = assay: Tested for the inhibitory concentration against cell growth of human leukemic cell line HuT78; assay type: functional
HuT78 [21] = assay: Tested for the concentration required to reduce the viability of leukemia cells by 50% against cell growth of HuT78 T lymphoma using MTT assay; assay type: functional; settings: Homo sapiens, read-out: LC50 (the source's name)
HuT78 [22] = assay: Tested for the inhibitory concentration against cell growth of HuT78 T lymphoma using MTT assay; assay type: functional; settings: Homo sapiens
K562 [23] = assay: Tested for the concentration required to reduce the viability of leukemia cells by 50% against cell growth of K562 chronic myeloid leukemia using MTT assay; assay type: functional; settings: Homo sapiens, read-out: LC50 (the source's name)
K562 [24] = assay: Tested for the inhibitory concentration against cell growth of K562 chronic myeloid leukemia using MTT assay; assay type: functional; settings: Homo sapiens
K562 [25] = assay: Tested for the inhibitory concentration against cell growth of human leukemic cell line K562; assay type: functional
Klebsiella pneumoniae = assay: Tested for the antimicrobial activity against Klebsiella pneumoniae ATCC 13883; assay type: functional
MOLT-4 [26] = assay: Tested for the inhibitory concentration against cell growth of human leukemic cell line MOLT-4; assay type: functional
MT4 [27] = assay: Tested for effective concentration required to protect MT-4 cells against the cytopathicity of HIV-1(IIIB); assay type: functional; settings: Homo sapiens, read-out: LC50 (the source's name)
MT4 [28] = assay: Tested for effective concentration required to protect MT-4 cells against the cytopathicity of HIV-2(ROD); assay type: functional, cell-based; settings: Homo sapiens
MOLT-4 [29] = assay: Tested for the concentration required to reduce the viability of leukemia cells by 50% against cell growth of T cell leukemia cell line MOLT-4 using MTT assay; assay type: functional; settings: Homo sapiens, read-out: LC50 (the source's name)
MOLT-4 [30] = assay: Tested for the inhibitory concentration against cell growth of Tcell leukemic cell line MOLT-4 using MTT assay; assay type: functional; settings: Homo sapiens
RPMI-8226 [31] = assay: Tested for the inhibitory concentration against cell growth of human leukemic cell line RPMI8226; assay type: functional
RPMI-8226 [32] = assay: Tested for the concentration required to reduce the viability of leukemia cells by 50% against cell growth of RPMI8226 multiple myeloma using MTT assay; assay type: functional; settings: Homo sapiens, read-out: LC50 (the source's name)
RPMI-8226 [33] = assay: Tested for the inhibitory concentration against cell growth of […] multiple myeloma using MTT assay; assay type: functional; settings: Homo sapiens
Staphylococcus aureus = assay: Tested for the antimicrobial activity against Staphylococcus aureus ATCC 6538; assay type: functional
[34] = tested on: Staphylococcus epidermidis; assay: Tested for the antimicrobial activity against Staphylococcus epidermidis ATCC 12228; assay type: functional
Staphylococcus hominis = assay: Tested for the antimicrobial activity against Staphylococcus hominis ATCC 27844; assay type: functional
Vero [35] = assay: Tested for cytotoxic activity in African green monkey kidney cells (Vero); assay type: functional; settings: Chlorocebus sabaeus
Vero [36] = assay: Tested for antiviral activity against Punta toro virus in African green monkey kidney cell (Vero); assay type: functional; settings: Chlorocebus sabaeus
Vero [37] = assay: Tested for antiviral activity against Reo-1 virus in African green monkey kidney cell (Vero); assay type: functional; settings: Chlorocebus sabaeus
Vero [38] = assay: Tested for antiviral activity against Sindbis virus in African green monkey kidney cell (Vero); assay type: functional; settings: Chlorocebus sabaeus
Vero [39] = assay: Tested for antiviral activity against coxsackie B-4 virus in African green monkey kidney cell (Vero); assay type: functional; settings: Chlorocebus sabaeus
Vero [40] = assay: Tested for antiviral activity against parainfluenza virus in african green monkey kidney cell (Vero); assay type: functional; settings: Chlorocebus sabaeus
MT4 [41] = assay: Tested for cytotoxic concentration required to reduce the viability of MT-4 cells by 50%; assay type: functional, cell-based; settings: Homo sapiens, read-out: EC50 (the source's name)

Compound `N/N=C(\S)N/N=C(/c1ccccn1)C12CC3CC(CC(C3)C1)C2` has a GI50 (CCRF-CEM [1]) of 100 µM, a CC50 (CCRF-CEM [2]) of 100 µM and a TGI (CCRF-CEM [3]) of 100 µM. The MIC (E6SM [4]) was greater than 16 mg/L, the MIC (E6SM [5]) was greater than 16 mg/L and the MIC (E6SM [6]) was greater than 16 mg/L. For the same compound, the MIC (HeLa [7]) was greater than 80 mg/L, the MCC (E6SM [8]) was greater than 80 µg/mL and the MIC (E6SM [9]) was greater than 16 mg/L. The MIC (E6SM [10]) was greater than 16 mg/L, the MIC (Escherichia coli) was greater than 3040 mg/L and the MCC (HEL [11]) was greater than 20 µg/mL. It also gave an MIC (HEL [12]) greater than 5 mg/L, an MIC (HEL [13]) greater than 20 mg/L and an MIC (HEL [14]) greater than 20 mg/L. The MIC (HeLa [15]) was greater than 80 mg/L, the TGI (HL-60 [16]) was 100 µM and the CC50 (HL-60 [17]) was 100 µM. It also gave a TGI (HL-60 [18]) of 100 µM, an MCC (HeLa [19]) of 400 µg/mL and a GI50 (HuT78 [20]) of 100 µM. The CC50 (HuT78 [21]) was 100 µM, the TGI (HuT78 [22]) was 100 µM and the CC50 (K562 [23]) was 100 µM. It also gave a TGI (K562 [24]) of 100 µM, a GI50 (K562 [25]) of 41.7 µM and an MIC (Klebsiella pneumoniae) greater than 3040 mg/L. For the same compound, the GI50 (MOLT-4 [26]) was 100 µM, the EC50 (MT4 [27]) was greater than 27 µM and the EC50 (MT4 [28]) was greater than 27 µM. It also gave a CC50 (MOLT-4 [29]) of 100 µM, a TGI (MOLT-4 [30]) of 100 µM and a GI50 (RPMI-8226 [31]) of 100 µM. For the same compound, the CC50 (RPMI-8226 [32]) was 100 µM, the TGI (RPMI-8226 [33]) was 100 µM and the MIC (Staphylococcus aureus) was greater than 3040 mg/L. For the same compound, the MIC [34] was greater than 3040 mg/L, the MIC (Staphylococcus hominis) was greater than 3040 mg/L and the MCC (Vero [35]) was 80 µg/mL. It also gave an MIC (Vero [36]) greater than 80 mg/L, an MIC (Vero [37]) greater than 80 mg/L and an MIC (Vero [38]) greater than 80 mg/L. For the same compound, the MIC (Vero [39]) was greater than 80 mg/L, the MIC (Vero [40]) was greater than 80 mg/L and the CC50 (MT4 [41]) was 27.3 µM.
